# Key:
# Type in all cases: cell-based
# [1] = system: MET; assay: MET activation and downstream signaling in DU145 cells (immunoblotting); details: 30 minutes; for fibroblast-induced MET activation and signaling / MET activation induced by active HGF: serum-starved DU145 cells, SRI 31215 10 μM, JNJ 38877605 1 μM; for fibroblast-induced MET activation and signaling: 18Co conditioned media
# Method: Figure 2 SRI 31215 inhibits the crosstalk between tumor cells and fibroblasts A. Inhibition of fibroblast-induced oncogenic signaling in tumor cells by SRI 31215. Serum-starved DU145 cells were treated with recombinant HGF or conditioned media from 18Co cells alone or in the presence of SRI 31215 (10 μM) or JNJ 38877605 (1 μM) for 30 minutes. The levels of pMET, pGab1, pAKT, pERK, and pSTAT3 were determined by immunoblotting. Specific bands for pMET and pGab1 are indicated by asterisks. B. Inhibition of fibroblast-induced cell scattering by SRI 31215. Scattering of DU145 cells was induced with recombinant HGF or with conditioned media from 18Co fibroblasts in the presence of SRI 31215 (10 μM) or JNJ 38877605 (1 μM) as indicated. Images were taken 24 hours after treatment.
# (§1) Immunoblotting was performed using standard procedures. Membranes were blocked with 5% non-fat milk for 1 hour at RT, and incubated with primary antibodies overnight at 4°C. Primary antibodies used were anti-HGF (R&D Systems), anti-MET, anti-p-MET, anti-p-GAB1, anti-p-AKT, anti-p-ERK1/2, anti-vimentin (Cell Signaling Technology), anti-p-STAT3 (Upstate Cell Signaling Solutions), anti-E-cadherin (BD Transduction Laboratories), anti-β-actin (Sigma). Following washing with TBS-T buffer, membranes were incubated with horseradish peroxidase-conjugated secondary antibodies for 1 hour and then washed with TBS-T. Immunoblots were developed using the chemiluminescent detection system with ECL (Amersham). Protein loading was normalized by probing blots for the expression of β-actin.
# Supplementary Figure S2: Dose-dependent inhibition of fibroblast induced MET activation by SRI 31215. DU145 cells were serum-starved and were treated with conditioned medium from 18Co fibroblasts for 30 minutes in the absence or the presence of increasing concentrations of SRI 31215 as indicated. The levels of pERK1/2, pAKT, pSTAT3 and β-actin were determined by […]
# (also on this page, place not known: www.impactjournals.com/oncotarget/ Oncotarget, Materials 2016 Supplementary) […]
# [2] = system: RKO cells; assay: Basal, constitutive migration of RKO cells; details: data not shown
# Method: Cancer cells were seeded in 12-well plates and allowed to reach confluence. Following overnight serum-starvation, a scratch/wound was introduced into the cell monolayer with a sterile tip. Cells were cultured in serum-free media or were treated with recombinant HGF (10 ng/ml) or serum-free conditioned media from fibroblasts (50%) in the presence or absence of SRI 31215 or JNJ 38877605. Images of migrating cells were captured at 0, 12 and 24 hours after the treatment.
# [3] = system: RKO cells; assay: Clonogenic growth and viability of HGF-producing RKO cells with EGFR inhibitors; details: SRI 31215 10 μM, JNJ 38877605 1 μM; for sensitization to gefitinib: HGF-producing RKO cells; for clonogenic growth, agent alone / clonogenic growth, combination with cetuximab: RKO cells, HAI-1 20 nM; for clonogenic growth, combination with cetuximab: cetuximab 50 μg/ml
# Method: (§2) Figure 5 Inhibitors of HGF/MET signaling prevent the innate and acquired resistance to cetuximab A. and B. RKO cells were treated with cetuximab (50 μg/ml) (A) of gefitinib (B) alone, or in combination with SRI 31215 (10 μM), JNJ 38877605 (1 μM) or recombinant HAI-1 (20 nM) as indicated and clonogenic growth was monitored as described in Materials and Methods. C. and D. Caco2 cells were treated with cetuximab or gefitinib alone or in the presence of CM from fibroblasts and SRI 31215 (10 μM) or JNJ 38877605 (1 μM) as indicated. #: p<0.05, compared to control (CTRL); NS: not significant.
# (§3) Cell titer-glo luminescent cell viability assay kit was purchased from Promega. […] For clonogenic assay, cells were seeded in 6-well plates at a density of 400 cells per well, serum starved overnight, and treated as indicated. After colony formation (8-12 days), cells were stained with crystal violet and the number of colonies was determined using ImageQuantTL (GE Health Care Life Sciences).
# (§4) Supplementary Figure S3: Inhibition of HGF/MET signaling sensitizes HGF-producing RKO colon cancer cells to gefitinib. A. RKO cells (HGF+) and B. HT29 (HGF-) cells were treated with gefitinib (5 μM) in the absence or the presence of SRI 31215 (10 μM) or JNJ 38877605 (1 μM) as indicated and viability was determined 24 and 72 hours after treatment. # indicates statistical significance compared to samples treated with gefitinib alone as determined by Students’ t-test (p<0.05).
# (§5) (also on this page, place not known: www.impactjournals.com/oncotarget/ Oncotarget, Materials 2016 Supplementary (HGF +) (HGF -)) […]
# [4] = system: HT29 cells; assay: Viability of HT29 cells with EGFR inhibitor; details: HT29 cells (HGF-), gefitinib 5 μM; SRI 31215 10 μM, JNJ 38877605 1 μM
# Method: as §3, §4, §5
# [5] = system: Caco2 cells; assay: Response of Caco2 cells to EGFR inhibitors with fibroblast conditioned medium; details: SRI 31215 10 μM, JNJ 38877605 1 μM; for response to cetuximab in the presence of fibroblast-derived CM: 18Co CM; for fibroblast-mediated resistance to gefitinib: 18Co conditioned medium
# Method: as §2, §3
# [6] = system: DiFi cells; assay: Caspase-Glo 3/7 Assay; details: fibroblast conditioned medium, 18h
# Method: Figure 6 Fibroblasts inhibit the proapoptotic activity of EGFRi in an HGF-dependent manner A. and B. DiFi cells were treated with gefitinib (0.5 μM) or cetuximab (0.5 μg/ml) in the absence or the presence of conditioned medium from fibroblasts and SRI 31215 and JNJ 38877605 as indicated. The viability was determined after 72 hours. In B, fibroblast conditioned medium was incubated with anti HGF or anti-IL1β antibodies. C. and D. DiFi cells were treated with gefitinib (C) or cetuximab (D) in the presence of conditioned medium from fibroblasts and inhibitors of HGF/MET signaling as indicated for 18h. Caspase activity was assessed by the Caspase-Glo 3/7 Assay from Promega.
# DiFi cells were seeded at a density of 20,000 cells/well in a 96 well plate and were treated with EGFRi in the absence or the presence of SRI 31215 or JNJ 38877605 for 18h. Caspase activity was assessed by the Caspase-Glo 3/7 Assay from Promega following the manufacturer's instructions.
# [7] = system: DiFi cells; assay: DiFi cells co-cultured with WI38 fibroblasts, immunoblotting; details: gefitinib 0.5 μM, WI38 co-culture, SRI 31215 10 μM, JNJ38877605 1 μM
# Method: Figure 7 Fibroblasts protect DiFi cells from EGFRi in an HGF-dependent manner DiFi cells were treated with gefitinib (0.5 μM) alone or were co-cultured with WI38 fibroblasts (FIB) in the absence or the presence of SRI 31215 (10 μM) or JNJ38877605 (1 μM). The DiFi cell lysates were isolated after 4 or 24 hours as indicated and examined for the expression of pERK and total ERK, pEGFR and total EGFR, cleaved PARP, β-catenin gelsolin and β-actin by immunoblotting.
# as §1
Compound,"fibroblast-induced ERK1/2, AKT and STAT3 activation ([1]; DU145 cells, 18Co conditioned medium, increasing concentrations, dose-dependent)",fibroblast-induced MET activation and signaling [1],MET activation induced by active HGF [1],"basal, constitutive migration [2]",sensitization to gefitinib [3],"clonogenic growth, agent alone [3]","clonogenic growth, combination with cetuximab [3]",response to EGFRi [4],response to cetuximab in the presence of fibroblast-derived CM [5],fibroblast-mediated resistance to gefitinib [5],gefitinib-induced activation of caspase 3 and caspase 7 in the presence of fibroblasts [6],gefitinib-induced cleavage of PARP in the presence of fibroblasts [7],prosurvival activity of fibroblasts (EGFR and ERK phosphorylation under gefitinib) [7]
"CC1CN(CC2CCN(Cc3ccccc3)CC2)C(=O)N(c2cccc(C(=N)N)c2)C1 (stereo not shown) [SRI 31215, 3-(3-((1-benzylpiperidin-4-yl)methyl)-5-methyl-2-oxotetrahydropyrimidin-1(2H)-yl)benzimidamide]",inhibited,prevented,did not prevent,inhibit,sensitized,did not impact,significant decrease,did not improve,restored the response,overcame,restored,restored,blocked
"Cn1cc(-c2ccc3nnc(C(F)(F)c4ccc5ncccc5c4)n3n2)cn1 [JNJ 38877605, reference compound]",–,prevented,prevented,inhibit,sensitized,did not impact,significant decrease,did not improve,restored the response,overcame,restored,restored,blocked

# From article PMC5045412, “Inhibition of pro-HGF activation by SRI31215, a novel approach to block oncogenic HGF/MET signaling” (Oncotarget, 2016)
